From patent publication US9169279B2, “Crystallization method and bioavailability” (THAR PHARMACEUTICALS, INC., priority 2009, dated 2015)
Read-outs that look alike come from different tables or passages of the source.

Columns and labels:
[1] = Rat PK study: zoledronic acid in plasma after IV, oral gavage or intraduodenal dosing (LC/MS/MS); format: in vivo; conditions: male, Sprague-Dawley, read-out: Average plasma concentration of 3 rats
Excerpt: (§1) This can be attributed to the fact that both animals have historically been used in the safety evaluation and PK screening studies and are recommended by appropriate regulatory agencies. […] Additional tests included ID administration in rats and administration of enteric coated capsules in dogs.
(§2) USA. Some animals have surgical catheters (jugular vein and intraduodenum) were implanted to the animals prior to the studies. Beagle dogs from Marshall Farms, N.Y., USA, weighing from (9-12 kg) were used in the studies presented herein. Surgical catheters (jugular vein) were implanted prior to the studies.
The dose of each rat was calculated on a per rat basis (not on an average weight of all the rats in the lot). • ii. Oral gavage administration: solid suspensions were administered. The dose of each rat was calculated on a per rat basis (not on an average weight of all the rats in the lot). […] Duodenal cannula administration: solid suspensions were administered. The dose of each rat was calculated on a per rat basis (not on an average weight of all the rats in the lot).
Two major groups of animals were selected for the study. • Group 1 consists of rat studies. […] Details of Group 1 Rat Dosing
Plasma was collected after centrifugation at 13,000 rpm for 5 min at 4° C. and immediately frozen and stored at −60 to −80° C. until analysis.

[2] = Dog PK study: zoledronic acid in serum after IV or oral capsule dosing, enteric or non-enteric coated, with or without excess coformer (LC/MS/MS); format: in vivo, Beagle dogs; conditions: beagle
Excerpt: as §1, §2
The dose volume of each dog was adjusted based upon the average weight of the dog. • ii. […]
Blood samples were placed without the use of an anticoagulant and allowed to sit at room temperature for approximately 30 minutes. Samples were then centrifuged at a temperature of 4° C., at a speed of 13,000 rpm, for 5 minutes. Serum was collected and split into two aliquots and stored frozen (−80° C.) until analysis.
In this study, capsules of particulate materials (zoledronic:DL-lysine:water complex and excess pure DL-lysine).

[3] = other: intraduodenal (ID, duodenal cannula), 5 mg/kg

O=P(O)(O)C(O)(Cn1ccnc1)P(=O)(O)O [Zoledronic acid, (1-hydroxy-2-imidazol-1-yl-1-phosphono-ethyl)phosphonic acid] gave a concentration at 0.083333 hour ([1]; iv, 0.5 mg/kg) of 3250 ng/mL, a concentration at 0.25 hour ([1]; iv, 0.5 mg/kg) of 1950 ng/mL and a concentration at 0.5 hour ([1]; iv, 0.5 mg/kg) of 1130 ng/mL. For the same compound, the concentration at 1 hour ([1]; iv, 0.5 mg/kg) was 404 ng/mL, the concentration at 2 hour ([1]; iv, 0.5 mg/kg) was 113 ng/mL and the concentration at 4 hour ([1]; iv, 0.5 mg/kg) was 30.5 ng/mL. For the same compound, the concentration at 8 hour ([1]; iv, 0.5 mg/kg) was 10.7 ng/mL, the concentration at 24 hour ([1]; iv, 0.5 mg/kg) was 2.98 ng/mL and the concentration at 0.25 hour [1, 3] was 146 ng/mL. It also gave a concentration at 0.5 hour [1, 3] of 110 ng/mL, a concentration at 1 hour [1, 3] of 47.4 ng/mL and a concentration at 2 hour [1, 3] of 12.9 ng/mL. For the same compound, the concentration at 4 hour [1, 3] was 3.85 ng/mL, the concentration at 8 hour [1, 3] was 0.97 ng/mL and the concentration at 24 hour [1, 3] was 0 ng/mL. The concentration at 0.25 hour ([1]; po, 5 mg/kg) was 330 ng/mL, the concentration at 0.5 hour ([1]; po, 5 mg/kg) was 267 ng/mL and the concentration at 1 hour ([1]; po, 5 mg/kg) was 139 ng/mL. For the same compound, the concentration at 2 hour ([1]; po, 5 mg/kg) was 47.7 ng/mL, the concentration at 4 hour ([1]; po, 5 mg/kg) was 11.8 ng/mL and the concentration at 8 hour ([1]; po, 5 mg/kg) was 2 ng/mL. It also gave a concentration at 24 hour ([1]; po, 5 mg/kg) of 0 ng/mL, a bioavailability ([2]; Leg 37: 63.1 mg Zoledronic, DL-lysine, and water complex with 1965.7 mg DL-lysine monohydrate, PO gelatin capsules) of over 8% and a concentration at 0 h ([2]; intravenous, 0.12 mg/kg, Leg 18, 15 min IV infusion 0.12 mg/kg, saline solution, Time 0 hour (pre-dose), read-out: Average serum concentration of 5 dogs) of 0 ng/mL. It also gave a concentration at 5 min ([2]; intravenous, 0.12 mg/kg, Leg 18, 15 min IV infusion 0.12 mg/kg, saline solution, Time 0.0833 hour, read-out: Average serum concentration of 5 dogs) of 309 ng/mL, a concentration at 10 min ([2]; intravenous, 0.12 mg/kg, Leg 18, 15 min IV infusion 0.12 mg/kg, saline solution, Time 0.1667 hour, read-out: Average serum concentration of 5 dogs) of 525 ng/mL and a concentration at 0.25 h ([2]; intravenous, 0.12 mg/kg, Leg 18, 15 min IV infusion 0.12 mg/kg, saline solution, Time 0.25 hour, read-out: Average serum concentration of 5 dogs) of 717 ng/mL. It also gave a concentration at 25 min ([2]; intravenous, 0.12 mg/kg, Leg 18, 15 min IV infusion 0.12 mg/kg, saline solution, Time 0.4167 hour, read-out: Average serum concentration of 5 dogs) of 392 ng/mL, a concentration at 0.5 h ([2]; intravenous, 0.12 mg/kg, Leg 18, 15 min IV infusion 0.12 mg/kg, saline solution, Time 0.5 hour, read-out: Average serum concentration of 5 dogs) of 323 ng/mL and a concentration at 0.75 h ([2]; intravenous, 0.12 mg/kg, Leg 18, 15 min IV infusion 0.12 mg/kg, saline solution, Time 0.75 hour, read-out: Average serum concentration of 5 dogs) of 202 ng/mL. For the same compound, the concentration at 1 h ([2]; intravenous, 0.12 mg/kg, Leg 18, 15 min IV infusion 0.12 mg/kg, saline solution, Time 1 hour, read-out: Average serum concentration of 5 dogs) was 133 ng/mL, the concentration at 1.25 h ([2]; intravenous, 0.12 mg/kg, Leg 18, 15 min IV infusion 0.12 mg/kg, saline solution, Time 1.25 hour, read-out: Average serum concentration of 5 dogs) was 93.2 ng/mL and the concentration at 1.5 h ([2]; intravenous, 0.12 mg/kg, Leg 18, 15 min IV infusion 0.12 mg/kg, saline solution, Time 1.5 hour, read-out: Average serum concentration of 5 dogs) was 69.1 ng/mL. The concentration at 2 h ([2]; intravenous, 0.12 mg/kg, Leg 18, 15 min IV infusion 0.12 mg/kg, saline solution, Time 2 hour, read-out: Average serum concentration of 5 dogs) was 38.4 ng/mL, the concentration at 4 h ([2]; intravenous, 0.12 mg/kg, Leg 18, 15 min IV infusion 0.12 mg/kg, saline solution, Time 4 hour, read-out: Average serum concentration of 5 dogs) was 9.14 ng/mL and the concentration at 8 h ([2]; intravenous, 0.12 mg/kg, Leg 18, 15 min IV infusion 0.12 mg/kg, saline solution, Time 8 hour, read-out: Average serum concentration of 5 dogs) was 3.24 ng/mL. It also gave a concentration at 24 h ([2]; intravenous, 0.12 mg/kg, Leg 18, 15 min IV infusion 0.12 mg/kg, saline solution, Time 24 hour, read-out: Average serum concentration of 5 dogs) of 1.21 ng/mL, a concentration at 0.0333 hour ([2]; iv, 0.05 mg/kg, zoledronic acid in dog serum, Leg 1, IV 0.05 mg/kg, saline solution, Time 0.0333 hour, read-out: Average serum concentration of 5 dogs) of 413 ng/mL and a concentration at 0.0833 hour ([2]; iv, 0.05 mg/kg, zoledronic acid in dog serum, Leg 1, IV 0.05 mg/kg, saline solution, Time 0.0833 hour, read-out: Average serum concentration of 5 dogs) of 312 ng/mL. For the same compound, the concentration at 0.1667 hour ([2]; iv, 0.05 mg/kg, zoledronic acid in dog serum, Leg 1, IV 0.05 mg/kg, saline solution, Time 0.1667 hour, read-out: Average serum concentration of 5 dogs) was 229 ng/mL, the concentration at 0.25 hour ([2]; iv, 0.05 mg/kg, zoledronic acid in dog serum, Leg 1, IV 0.05 mg/kg, saline solution, Time 0.25 hour, read-out: Average serum concentration of 5 dogs) was 179 ng/mL and the concentration at 0.75 hour ([2]; iv, 0.05 mg/kg, zoledronic acid in dog serum, Leg 1, IV 0.05 mg/kg, saline solution, Time 0.75 hour, read-out: Average serum concentration of 5 dogs) was 75.9 ng/mL. For the same compound, the concentration at 1 hour ([2]; iv, 0.05 mg/kg, zoledronic acid in dog serum, Leg 1, IV 0.05 mg/kg, saline solution, Time 1 hour, read-out: Average serum concentration of 5 dogs) was 56.1 ng/mL, the concentration at 1.5 hour ([2]; iv, 0.05 mg/kg, zoledronic acid in dog serum, Leg 1, IV 0.05 mg/kg, saline solution, Time 1.5 hour, read-out: Average serum concentration of 5 dogs) was 30.4 ng/mL and the concentration at 2 hour ([2]; iv, 0.05 mg/kg, zoledronic acid in dog serum, Leg 1, IV 0.05 mg/kg, saline solution, Time 2 hour, read-out: Average serum concentration of 5 dogs) was 17.6 ng/mL. It also gave a concentration at 4 hour ([2]; iv, 0.05 mg/kg, zoledronic acid in dog serum, Leg 1, IV 0.05 mg/kg, saline solution, Time 4 hour, read-out: Average serum concentration of 5 dogs) of 4.29 ng/mL, a concentration at 8 hour ([2]; iv, 0.05 mg/kg, zoledronic acid in dog serum, Leg 1, IV 0.05 mg/kg, saline solution, Time 8 hour, read-out: Average serum concentration of 5 dogs) of 1.13 ng/mL and a concentration at 24 hour ([2]; iv, 0.05 mg/kg, zoledronic acid in dog serum, Leg 1, IV 0.05 mg/kg, saline solution, Time 24 hour, read-out: Average serum concentration of 5 dogs) of 0 ng/mL. It also gave a concentration at 48 hour ([2]; iv, 0.05 mg/kg, zoledronic acid in dog serum, Leg 1, IV 0.05 mg/kg, saline solution, Time 48 hour, read-out: Average serum concentration of 5 dogs) of 0 ng/mL, a concentration at 0 h ([2]; iv, 0.12 mg/kg, Leg 38, 0.12 mg/kg IV, saline solution, 0 h, read-out: Average serum concentration of 4 dogs) of 0 ng/mL and a concentration at 5 min ([2]; iv, 0.12 mg/kg, Leg 38, 0.12 mg/kg IV, saline solution, 5 min, read-out: Average serum concentration of 4 dogs) of 288 ng/mL. The concentration at 10 min ([2]; iv, 0.12 mg/kg, Leg 38, 0.12 mg/kg IV, saline solution, 10 min, read-out: Average serum concentration of 4 dogs) was 542 ng/mL, the concentration at 0.25 h ([2]; iv, 0.12 mg/kg, Leg 38, 0.12 mg/kg IV, saline solution, 0.25 h, read-out: Average serum concentration of 4 dogs) was 711 ng/mL and the concentration at 20 min ([2]; iv, 0.12 mg/kg, Leg 38, 0.12 mg/kg IV, saline solution, 20 min, read-out: Average serum concentration of 4 dogs) was 529 ng/mL. The concentration at 25 min ([2]; iv, 0.12 mg/kg, Leg 38, 0.12 mg/kg IV, saline solution, 25 min, read-out: Average serum concentration of 4 dogs) was 406 ng/mL, the concentration at 0.5 h ([2]; iv, 0.12 mg/kg, Leg 38, 0.12 mg/kg IV, saline solution, 0.5 h, read-out: Average serum concentration of 4 dogs) was 358 ng/mL and the concentration at 0.75 h ([2]; iv, 0.12 mg/kg, Leg 38, 0.12 mg/kg IV, saline solution, 0.75 h, read-out: Average serum concentration of 4 dogs) was 240 ng/mL.
